Values of other authors, collected in US20090017120A1, “Phase stable lecithin organogel composition” (Humco Holding Group, Inc., priority 2007, published 2009).

Settings: 20% wt/vol pluronic gels, pH 7, 20° C.

COc1ccc2c(c1)c(CC(=O)O)c(C)n2C(=O)c1ccc(Cl)cc1 [indomethacin]
time to 10% indomethacin degradation: 2.7 years
